# Source: US20240083900A1, “PYRAZOLO[1,5-A]PYRAZINE DERIVATIVES AS BTK INHIBITORS” (BIOGEN MA INC., priority 2020, published 2024)
# Target: BTK (Homo sapiens (Human), UniProt Q06187)
# Experiment: In Vitro BTK Kinase Assay: Btk-PolyGAT-LS Assay
# Type: biochemical
# Conditions: BTK enzyme 0.25 nM, ATP 10 μM, polyGAT 100 nM, 30 minutes incubation, TRF readout; read-out: IC50
# Procedure: The purpose of the BTK in vitro assay is to determine compound potency against BTK through the measurement of IC50. […] For a typical assay, a 24 μL aliquot of a ATP/peptide master mix (final concentration; ATP 10 μM, polyGAT 100 nM) in kinase buffer (10 mM Tris-HCl pH 7.5, 10 mM MgCl2, 200 μM Na3PO4, 5 mM DTT, 0.01% Triton X-100, and 0.2 mg/ml casein) is added to each well. […] The assay is incubated for 30 minutes before being stopped with 28 μL of a 50 mM EDTA solution. […] The plate is covered and incubated for 45 minutes at room temperature.
# Chain of BTK (Q06187 whole entry): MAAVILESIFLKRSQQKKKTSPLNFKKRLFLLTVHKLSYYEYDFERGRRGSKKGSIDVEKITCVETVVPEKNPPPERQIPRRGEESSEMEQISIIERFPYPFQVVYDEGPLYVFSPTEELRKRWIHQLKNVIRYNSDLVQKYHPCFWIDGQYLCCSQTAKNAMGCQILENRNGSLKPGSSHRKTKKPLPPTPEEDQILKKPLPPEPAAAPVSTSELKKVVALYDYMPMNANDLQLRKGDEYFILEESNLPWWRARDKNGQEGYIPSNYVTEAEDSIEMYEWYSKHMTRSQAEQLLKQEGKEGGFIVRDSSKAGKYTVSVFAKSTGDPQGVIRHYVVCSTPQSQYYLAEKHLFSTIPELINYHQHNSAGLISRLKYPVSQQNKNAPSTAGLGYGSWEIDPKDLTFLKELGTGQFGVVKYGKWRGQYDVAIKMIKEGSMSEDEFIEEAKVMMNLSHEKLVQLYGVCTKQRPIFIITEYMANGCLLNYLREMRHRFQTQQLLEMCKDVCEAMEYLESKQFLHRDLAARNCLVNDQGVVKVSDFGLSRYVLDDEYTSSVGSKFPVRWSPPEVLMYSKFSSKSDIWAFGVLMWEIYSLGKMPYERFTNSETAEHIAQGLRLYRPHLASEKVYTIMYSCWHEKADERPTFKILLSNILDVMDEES
row,SMILES,IC50
1,"C=CC(=O)N(C)[C@H]1C[C@@H](Oc2nc(-c3cnn([C@@H]4CCOC4)c3)cn3nccc23)C1 [Example 155, N-methyl-N-((cis)-3-((6-(1-((R)-tetrahydrofuran-3-yl)-1H-pyrazol-4-yl)pyrazolo[1,5-a]pyrazin-4-yl)oxy)cyclobutyl)acrylamide]",< 1 nM
2,"C=CC(=O)N1CCC(CNc2nc(-c3cnn(C)c3)cn3nccc23)CC1 [Example 18, 1-(4-(((6-(1-methyl-1H-pyrazol-4-yl)pyrazolo[1,5-a]pyrazin-4-yl)amino)methyl)piperidin-1-yl)prop-2-en-1-one]",1 to 10 nM
3,"C=CC(=O)N1C[C@@H]2C[C@@H](Oc3nc(-c4cnn(C)c4)cn4nccc34)C[C@@H]21 (racemic) [Example 209, rac-((1S,3R,5S)-3-((6-(1-methyl-1H-pyrazol-4-yl)pyrazolo[1,5-a]pyrazin-4-yl)oxy)-6-azabicyclo[3.2.0]heptan-6-yl)prop-2-en-1-one]",< 1 nM
4,C#CC(=O)N1CCC[C@@H](Oc2nc(-c3cnn(C)c3)cc3nccn23)C1 [Example 53],1 to 10 nM
5,"Cn1cc(-c2cn3nccc3c(O[C@H]3C[C@H](N(C)C(=O)/C=C/CCl)C3)n2)cn1 [Example 227, (E)-4-chloro-N-methyl-N-((trans)-3-((6-(1-methyl-1H-pyrazol-4-yl)pyrazolo[1,5-a]pyrazin-4-yl)oxy)cyclobutyl)but-2-enamide]",< 1 nM
6,CC#CC(=O)NC1CCCC(Oc2nc(-c3cnn(C)c3)cc3nccn23)C1 (stereo not drawn) [Example 52],1 to 10 nM
7,"Cc1c(NC(=O)/C=C/CN(C)C2CCC2)cccc1Oc1nc(-c2cnn(C)c2)cn2nccc12 [Example 135, (E)-4-(cyclobutyl(methyl)amino)-N-(2-methyl-3-((6-(1-methyl-1H-pyrazol-4-yl)pyrazolo[1,5-a]pyrazin-4-yl)oxy)phenyl)but-2-enamide]",10 to 1000 nM
8,C=CC(=O)N1CCC[C@@H](COc2nc(-c3cnn(C)c3)cc3nccn23)C1 [Example 41],10 to 1000 nM
9,"C=CC(=O)N1CCC2(CC1)CC(Oc1nc(-c3cnn(C)c3)cn3nccc13)C2 [Example 208, 1-(2-((6-(1-methyl-1H-pyrazol-4-yl)pyrazolo[1,5-a]pyrazin-4-yl)oxy)-7-azaspiro[3.5]nonan-7-yl)prop-2-en-1-one]",10 to 1000 nM
10,"C=CC(=O)NC1CC2CC1CC2Oc1cc(-c2cnn(C)c2)cn2nccc12 (stereo not drawn) [Example 82, N-(5-((6-(1-methyl-1H-pyrazol-4-yl)pyrazolo[1,5-a]pyridin-4-yl)oxy)bicyclo[2.2.1]heptan-2-yl)acrylamide]",1 to 10 nM
11,C=CC(=O)N1CCC[C@H](COc2nc(-c3cnn(C)c3)cc3nccn23)C1 [Example 40],10 to 1000 nM
12,"C=CC(=O)N(C)CC1(COc2nc(-c3cnn(C)c3)cn3nccc23)CC1 [Example 216, N-methyl-N-((1-(((6-(1-methyl-1H-pyrazol-4-yl)pyrazolo[1,5-a]pyrazin-4-yl)oxy)methyl)cyclopropyl)methyl)acrylamide]",10 to 1000 nM
13,"C=CC(=O)N1C[C@@H]2[C@@H](CNc3cc(-c4cnn(C)c4)cn4nccc34)[C@@H]2C1 [Example 165, 1-((1R,5S,6s)-6-(((6-(1-methyl-1H-pyrazol-4-yl)pyrazolo[1,5-a]pyridin-4-yl)amino)methyl)-3-azabicyclo[3.1.0]hexan-3-yl)prop-2-en-1-one]",1 to 10 nM
14,"C=CC(=O)N(C)[C@H]1C[C@@](C)(Oc2nc(-c3cn[nH]c3)cn3nccc23)C1 [Example 80, N-((1s,3s)-3-((6-(1H-pyrazol-4-yl)pyrazolo[1,5-a]pyrazin-4-yl)oxy)-3-methylcyclobutyl)-N-methylacrylamide]",< 1 nM
15,"C=CC(=O)N1CCCN(Cc2nc(-c3cnn(C)c3)cn3nccc23)CC1 [Example 90, 1-(4-((6-(1-methyl-1H-pyrazol-4-yl)pyrazolo[1,5-a]pyrazin-4-yl)methyl)-1,4-diazepan-1-yl)prop-2-en-1-one]",10 to 1000 nM
16,"C=CC(=O)N1CCCC(Oc2nc(-c3cn(C)nc3C)cn3nccc23)CC1 (single isomer, unassigned) [Example 69 E2, 1-[4-[6-(1,3-dimethylpyrazol-4-yl)pyrazolo[1,5-a]pyrazin-4-yl]oxyazepan-1-yl]prop-2-en-1-one]",10 to 1000 nM
17,"C=CC(=O)N(C)CCCOc1nc(-c2cnn(C)c2)cn2nccc12 [Example 182, N-methyl-N-(3-((6-(1-methyl-1H-pyrazol-4-yl)pyrazolo[1,5-a]pyrazin-4-yl)oxy)propyl)acrylamide]",10 to 1000 nM
18,"C=CC(=O)N1CCC[C@H](Oc2nc(-c3cnn(C)c3)cc3nccn23)CC1 (single isomer, unassigned) [Example 38, (R)- or (S)-1-(4-((7-(1-methyl-1H-pyrazol-4-yl)imidazo[1,2-c]pyrimidin-5-yl)oxy)azepan-1-yl)prop-2-en-1-one]",10 to 1000 nM

row,SMILES,IC50
1,"CC#CC(=O)N(C)[C@H]1C[C@@H](Oc2nc(-c3cnn(C)c3)c(F)n3nccc23)C1 [Example 222, N-((cis)-3-((7-fluoro-6-(1-methyl-1H-pyrazol-4-yl)pyrazolo[1,5-a]pyrazin-4-yl)oxy)cyclobutyl)-N-methylbut-2-ynamide]",10 to 1000 nM
2,"Cn1cc(-c2cn3nccc3c(O[C@]3(C)C[C@H](N(C)C(=O)C4=CCC4)C3)n2)cn1 [Example 230, N-methyl-N-((1s,3s)-3-methyl-3-((6-(1-methyl-1H-pyrazol-4-yl)pyrazolo[1,5-a]pyrazin-4-yl)oxy)cyclobutyl)cyclobut-1-ene-1-carboxamide]",1 to 10 nM
3,"C=CS(=O)(=O)N1CCC[C@@H](Oc2nc(-c3cnn(C)c3)cc3nccn23)CC1 (single isomer, unassigned) [Example 36, (R)- or (S)-7-(1-methyl-1H-pyrazol-4-yl)-5-((1-(vinylsulfonyl)azepan-4-yl)oxy)imidazo[1,2-c]pyrimidine]",1 to 10 nM
4,"C=CC(=O)N(C)[C@H]1C[C@](C)(Oc2nc(-c3cnn(C)c3)cn3nccc23)[C@H]1C (single isomer, unassigned) [Example 106]",10 to 1000 nM
5,"C=CC(=O)N1CCCC(Oc2nc(-c3cn(C)nc3C)cn3nccc23)CC1 (single isomer, unassigned) [Example 69 E1, 1-[-4-[6-(1,3-dimethylpyrazol-4-yl)pyrazolo[1,5-a]pyrazin-4-yl]oxyazepan-1-yl]prop-2-en-1-one]",1 to 10 nM
6,"Cc1ncc(-c2cn3nccc3c(O[C@@]3(C)C[C@@H]4[C@H]3CCN4C(=O)C3=CCC3)n2)s1 [Example 196, Cyclobut-1-en-1-yl((1R,5R,6S)-6-methyl-6-((6-(2-methylthiazol-5-yl)pyrazolo[1,5-a]pyrazin-4-yl)oxy)-2-azabicyclo[3.2.0]heptan-2-yl)methanone]",10 to 1000 nM
7,C=CC(=O)N1CCC[C@@H](Oc2nc(-c3cnn(C)c3)cc3nccn23)C1 [Example 45],10 to 1000 nM
8,"C=CC(=O)N(C1CC1)[C@H]1C[C@H](Oc2nc(-c3cnn(C)c3)cn3nccc23)C1 [Example 102, N-cyclopropyl-N-((trans)-3-((6-(1-methyl-1H-pyrazol-4-yl)pyrazolo[1,5-a]pyrazin-4-yl)oxy)cyclobutyl)acrylamide]",1 to 10 nM
9,"C=CC(=O)NCc1cccc(Oc2nc(-c3cnn(C)c3)cn3nccc23)c1 [Example 132, N-(3-((6-(1-methyl-1H-pyrazol-4-yl)pyrazolo[1,5-a]pyrazin-4-yl)oxy)benzyl)acrylamide]",10 to 1000 nM
10,"C=CC(=O)N1C[C@@H]2C[C@H](Oc3nc(-c4cnn(C)c4)cn4ncc(C)c34)[C@@H]2C1 [Example 198, 1-((1R,5S,6S)-6-((3-methyl-6-(1-methyl-1H-pyrazol-4-yl)pyrazolo[1,5-a]pyrazin-4-yl)oxy)-3-azabicyclo[3.2.0]heptan-3-yl)prop-2-en-1-one]",10 to 1000 nM
11,"CC#CC(=O)Nc1cncc(Oc2nc(-c3cnn(C)c3)cn3nccc23)c1 [Example 138, N-(5-((6-(1-methyl-1H-pyrazol-4-yl)pyrazolo[1,5-a]pyrazin-4-yl)oxy)pyridin-3-yl)but-2-ynamide]",1 to 10 nM
12,"C=CC(=O)N(C)CC(C)CCOc1nc(-c2cnn(C)c2)cn2nccc12 (stereo not drawn) [Example 184, N-methyl-N-(2-methyl-4-((6-(1-methyl-1H-pyrazol-4-yl)pyrazolo[1,5-a]pyrazin-4-yl)oxy)butyl)acrylamide]",10 to 1000 nM
13,"CC#CC(=O)N(C)[C@@H]1CC[C@@H]2C[C@]2(Oc2nc(-c3cnn(C)c3)cn3nccc23)C1 (single isomer, unassigned) [Example 114]",10 to 1000 nM
14,"C=CC(=O)N1CCCC(N(C)Cc2nc(-c3cnn(C)c3)cn3nccc23)C1 (stereo not drawn) [Example 91, 1-(3-(methyl((6-(1-methyl-1H-pyrazol-4-yl)pyrazolo[1,5-a]pyrazin-4-yl)methyl)amino)piperidin-1-yl)prop-2-en-1-one]",10 to 1000 nM
15,C=CC(=O)N1CCC(COc2nc(-c3cnn(C)c3)cc3nccn23)CC1 [Example 44],10 to 1000 nM
16,"C=CC(=O)N1CCC[C@@H](Oc2nc(-c3cnc(C)s3)cn3nccc23)CC1 [Example 77, (R)-1-(4-((6-(2-methylthiazol-5-yl)pyrazolo[1,5-a]pyrazin-4-yl)oxy)azepan-1-yl)prop-2-en-1-one]",< 1 nM
17,"C=CC(=O)N1C[C@H](COc2cc(-c3cnn(C)c3)cn3nccc23)OC(C)(C)C1 [Example 83, (R)-1-(2,2-dimethyl-6-(((6-(1-methyl-1H-pyrazol-4-yl)pyrazolo[1,5-a]pyridin-4-yl)oxy)methyl)morpholino)prop-2-en-1-one]",1 to 10 nM
18,"C=CC(=O)NC1CN(c2cc(-c3cnn(C)c3)cn3nccc23)CC(F)(F)C1 (stereo not drawn) [Example 89, N-(5,5-difluoro-1-(6-(1-methyl-1H-pyrazol-4-yl)pyrazolo[1,5-a]pyridin-4-yl)piperidin-3-yl)acrylamide]",10 to 1000 nM
